Literature values, collected in US11359044B2, “Preparation and application of novel multifunctional nanocomposite material with new photosensitizer” (priority 2018, dated 2022).

Settings: in DMSO, used as control

SMILES: [Zn+2].c1ccc2c(c1)-c1nc-2nc2[n-]c(nc3nc([n-]c4nc(n1)-c1ccccc1-4)-c1ccccc1-3)c1ccccc21 [ZnPc, zinc phthalocyanine]
- singlet oxygen yield: 0.67
